How the values were obtained:
[1] = molecular target: Serine/threonine-protein kinase MRCK beta (Homo sapiens) (UniProt Q9Y5S2); assay: Inhibition of wild-type human partial length MRCKB (L56 to S417 residues) expressed in bacterial expression system at 1 uM by Kinomescan method relative to control
[2] = molecular target: Calcium/calmodulin-dependent protein kinase type II subunit beta (Homo sapiens) (UniProt Q13554); assay: Inhibition of wild-type human partial length CAMK2B (M1 to Q380 residues) expressed in bacterial expression system at 1 uM by Kinomescan method relative to control
[3] = molecular target: Serine/threonine-protein kinase PAK 5 (Homo sapiens) (UniProt Q9P286); assay: Inhibition of wild-type human partial length PAK7 (Y400 to H719 residues) expressed in bacterial expression system at 1 uM by Kinomescan method relative to control
[4] = test system: Receptor-type tyrosine-protein kinase FLT3 (Homo sapiens), P36888 [K663Q]; assay: Inhibition of human partial length FLT3 K663Q mutant (V592 to Y969 residues) expressed in bacterial expression system at 1 uM by Kinomescan method relative to control
[5] = molecular target: Cyclin-dependent kinase 7 (Homo sapiens) (UniProt P50613); assay: Inhibition of wild-type human full length CDK7 (M1 to L344 residues) expressed in mammalian expression system at 1 uM by Kinomescan method relative to control
[6] = molecular target: Serine/threonine-protein kinase SIK2 (Homo sapiens) (UniProt Q9H0K1); assay: Inhibition of wild-type human full length SIK2 (M1 to N926 residues) expressed in bacterial expression system at 1 uM by Kinomescan method relative to control
[7] = molecular target: Serine/threonine-protein kinase LATS1 (Homo sapiens) (UniProt O95835); assay: Inhibition of wild-type human partial length LATS1 (Q678 to V1130 residues) expressed in bacterial expression system at 1 uM by Kinomescan method relative to control
[8] = molecular target: Calcium/calmodulin-dependent protein kinase type II subunit alpha (Homo sapiens) (UniProt Q9UQM7); assay: Inhibition of wild-type human partial length CAMK2A (M1 to K328 residues) expressed in bacterial expression system at 1 uM by Kinomescan method relative to control
[9] = molecular target: Tyrosine-protein kinase BTK (Homo sapiens, UniProt Q06187); assay: Inhibition of BTK in human PBMC assessed as reduction in CD69 expression
[10] = molecular target: Serine/threonine-protein kinase PAK 1 (Homo sapiens) (UniProt Q13153); assay: Inhibition of wild-type human partial length PAK1 (S149 to H545 residues) expressed in bacterial expression system at 1 uM by Kinomescan method relative to control
[11] = molecular target: cAMP-dependent protein kinase catalytic subunit PRKX (Homo sapiens) (UniProt P51817); assay: Inhibition of wild-type human partial length PRKX (M1 to F358 residues) expressed in bacterial expression system at 1 uM by Kinomescan method relative to control
[12] = test system: Phosphatidylinositol 4,5-bisphosphate 3-kinase catalytic subunit alpha isoform (Homo sapiens), P42336 [C420R]; assay: Inhibition of human partial length PIK3CA C420R mutant (R108 to N1068 residues) expressed in mammalian expression system at 10 uM by Kinomescan method relative to control
[13] = test system: Phosphatidylinositol 4,5-bisphosphate 3-kinase catalytic subunit alpha isoform (Homo sapiens), P42336 [E545A]; assay: Inhibition of human partial length PIK3CA E545A mutant (R108 to N1068 residues) expressed in mammalian expression system at 10 uM by Kinomescan method relative to control
[14] = molecular target: Serine/threonine-protein kinase ULK3 (Homo sapiens) (UniProt Q6PHR2); assay: Inhibition of wild-type human partial length ULK3 (M1 to Q290 residues) expressed in mammalian expression system at 10 uM by Kinomescan method relative to control
[15] = molecular target: Beta-adrenergic receptor kinase 1 (Homo sapiens) (UniProt P25098); assay: Inhibition of wild-type human full length GRK2 (M1 to L689 residues) expressed in mammalian expression system at 10 uM by Kinomescan method relative to control
[16] = molecular target: BDNF/NT-3 growth factors receptor (Homo sapiens) (UniProt Q16620); assay: Inhibition of wild-type human partial length TRKB (Q547 to G838 residues) expressed in mammalian expression system at 10 uM by Kinomescan method relative to control
[17] = molecular target: Serine/threonine-protein kinase mTOR (Homo sapiens) (UniProt P42345); assay: Inhibition of wild-type human partial length MTOR (L1382 to W2549 residues) expressed in mammalian expression system at 10 uM by Kinomescan method relative to control
[18] = molecular target: Mitogen-activated protein kinase kinase kinase 3 (Homo sapiens) (UniProt Q99759); assay: Inhibition of wild-type human partial length MAP3K3 (E320 to Y626 residues) expressed in mammalian expression system at 10 uM by Kinomescan method relative to control
[19] = molecular target: Glycogen synthase kinase-3 beta (Homo sapiens) (UniProt P49841); assay: Inhibition of wild-type human full length GSK3B (M1 to T433 residues) expressed in mammalian expression system at 10 uM by Kinomescan method relative to control
[20] = molecular target: Dual specificity protein kinase TTK (Homo sapiens) (UniProt P33981); assay: Inhibition of wild-type human partial length TTK (N505 to V798 residues) expressed in bacterial expression system at 10 uM by Kinomescan method relative to control
[21] = molecular target: Serine/threonine-protein kinase MARK2 (Homo sapiens) (UniProt Q7KZI7); assay: Inhibition of wild-type human partial length MARK2 (M1 to R450 residues) expressed in bacterial expression system at 10 uM by Kinomescan method relative to control
[22] = molecular target: NUAK family SNF1-like kinase 1 (Homo sapiens) (UniProt O60285); assay: Inhibition of wild-type human partial length ARK5 (E25 to I332 residues) expressed in bacterial expression system at 10 uM by Kinomescan method relative to control
[23] = test system: ALK tyrosine kinase receptor (Homo sapiens), Q9UM73 [C1156Y]; assay: Inhibition of wild-type human partial length ALK C1156Y mutant (I1088 to E1409 residues) expressed in mammalian expression system at 10 uM by Kinomescan method relative to control
[24] = molecular target: Serine/threonine-protein kinase Sgk1 (Homo sapiens) (UniProt O00141); assay: Inhibition of wild-type human partial length SGK (I60 to L431 residues) expressed in mammalian expression system at 10 uM by Kinomescan method relative to control
[25] = molecular target: Tyrosine-protein kinase Srms (Homo sapiens) (UniProt Q9H3Y6); assay: Inhibition of wild-type human partial length SRMS (L208 to P488 residues) expressed in mammalian expression system at 10 uM by Kinomescan method relative to control
[26] = molecular target: Atypical kinase COQ8B, mitochondrial (Homo sapiens) (UniProt Q96D53); assay: Inhibition of wild-type human full length ADCK4 (M1 to S544 residues) expressed in bacterial expression system at 10 uM by Kinomescan method relative to control
[27] = molecular target: Serine/threonine-protein kinase RIO3 (Homo sapiens) (UniProt O14730); assay: Inhibition of wild-type human full length RIOK3 (M1 to E519 residues) expressed in bacterial expression system at 10 uM by Kinomescan method relative to control

Chain of Tyrosine-protein kinase Srms (Homo sapiens) (Q9H3Y6 whole entry, the tested form may be a part): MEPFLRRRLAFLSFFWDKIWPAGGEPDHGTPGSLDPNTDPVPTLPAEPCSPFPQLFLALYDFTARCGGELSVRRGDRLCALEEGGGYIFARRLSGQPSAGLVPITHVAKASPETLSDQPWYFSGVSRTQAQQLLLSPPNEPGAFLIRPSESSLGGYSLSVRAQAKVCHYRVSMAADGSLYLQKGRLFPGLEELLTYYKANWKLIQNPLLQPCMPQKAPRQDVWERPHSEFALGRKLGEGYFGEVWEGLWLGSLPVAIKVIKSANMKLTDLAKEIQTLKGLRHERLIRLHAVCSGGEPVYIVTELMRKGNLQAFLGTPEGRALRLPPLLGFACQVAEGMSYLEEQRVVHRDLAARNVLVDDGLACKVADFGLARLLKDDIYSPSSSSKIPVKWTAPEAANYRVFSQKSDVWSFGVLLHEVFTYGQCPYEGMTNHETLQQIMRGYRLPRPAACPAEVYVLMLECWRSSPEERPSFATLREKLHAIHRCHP
Chain of Serine/threonine-protein kinase MRCK beta (Homo sapiens) (Q9Y5S2 whole entry, the tested form may be a part): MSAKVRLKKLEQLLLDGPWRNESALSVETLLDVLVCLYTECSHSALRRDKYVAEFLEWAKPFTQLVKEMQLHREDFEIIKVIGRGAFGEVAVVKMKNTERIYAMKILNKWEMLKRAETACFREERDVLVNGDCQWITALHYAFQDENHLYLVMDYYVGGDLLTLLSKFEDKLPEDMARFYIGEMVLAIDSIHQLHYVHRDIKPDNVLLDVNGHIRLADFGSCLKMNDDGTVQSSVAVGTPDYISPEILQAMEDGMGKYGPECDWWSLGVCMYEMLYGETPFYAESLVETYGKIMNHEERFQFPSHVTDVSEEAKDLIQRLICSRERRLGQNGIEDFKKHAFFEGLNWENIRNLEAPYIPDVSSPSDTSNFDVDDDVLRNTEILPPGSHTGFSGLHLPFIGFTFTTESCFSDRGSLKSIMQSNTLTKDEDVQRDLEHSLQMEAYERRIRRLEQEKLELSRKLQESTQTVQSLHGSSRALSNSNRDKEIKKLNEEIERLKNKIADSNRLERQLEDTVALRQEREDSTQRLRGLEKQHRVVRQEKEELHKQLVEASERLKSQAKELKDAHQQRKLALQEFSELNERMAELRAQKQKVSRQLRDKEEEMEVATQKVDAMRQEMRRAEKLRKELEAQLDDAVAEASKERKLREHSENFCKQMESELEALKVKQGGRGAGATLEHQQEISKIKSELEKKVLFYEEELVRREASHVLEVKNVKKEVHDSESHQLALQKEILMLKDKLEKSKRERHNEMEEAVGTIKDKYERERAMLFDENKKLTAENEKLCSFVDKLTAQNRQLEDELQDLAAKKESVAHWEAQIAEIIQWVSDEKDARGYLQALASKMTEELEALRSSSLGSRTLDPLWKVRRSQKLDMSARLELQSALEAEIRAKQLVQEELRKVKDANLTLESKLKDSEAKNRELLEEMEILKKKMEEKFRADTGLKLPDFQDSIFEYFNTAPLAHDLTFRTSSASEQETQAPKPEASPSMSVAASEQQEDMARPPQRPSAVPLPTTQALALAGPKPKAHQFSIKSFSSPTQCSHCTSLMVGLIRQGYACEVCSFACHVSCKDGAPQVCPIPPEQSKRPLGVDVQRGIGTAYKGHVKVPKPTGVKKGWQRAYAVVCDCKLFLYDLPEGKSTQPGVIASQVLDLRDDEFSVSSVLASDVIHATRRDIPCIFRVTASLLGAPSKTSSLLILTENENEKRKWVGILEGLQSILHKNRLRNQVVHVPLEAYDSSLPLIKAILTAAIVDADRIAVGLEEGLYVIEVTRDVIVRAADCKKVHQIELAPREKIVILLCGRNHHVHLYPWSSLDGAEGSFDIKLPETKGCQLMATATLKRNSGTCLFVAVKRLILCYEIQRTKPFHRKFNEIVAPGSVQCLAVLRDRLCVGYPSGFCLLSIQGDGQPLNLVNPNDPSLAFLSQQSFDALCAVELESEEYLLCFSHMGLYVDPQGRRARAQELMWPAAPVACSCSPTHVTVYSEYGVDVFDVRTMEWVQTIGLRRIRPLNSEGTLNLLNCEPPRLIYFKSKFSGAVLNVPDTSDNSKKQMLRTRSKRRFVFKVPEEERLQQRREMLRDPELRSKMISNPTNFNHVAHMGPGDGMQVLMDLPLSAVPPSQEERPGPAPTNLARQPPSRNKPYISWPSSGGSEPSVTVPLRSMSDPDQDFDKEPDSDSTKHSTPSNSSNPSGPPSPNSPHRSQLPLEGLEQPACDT
Chain of Phosphatidylinositol 4,5-bisphosphate 3-kinase catalytic subunit alpha isoform (Homo sapiens), P42336 [C420R] (P42336 whole entry C420R, the tested form may be a part, canonical isoform): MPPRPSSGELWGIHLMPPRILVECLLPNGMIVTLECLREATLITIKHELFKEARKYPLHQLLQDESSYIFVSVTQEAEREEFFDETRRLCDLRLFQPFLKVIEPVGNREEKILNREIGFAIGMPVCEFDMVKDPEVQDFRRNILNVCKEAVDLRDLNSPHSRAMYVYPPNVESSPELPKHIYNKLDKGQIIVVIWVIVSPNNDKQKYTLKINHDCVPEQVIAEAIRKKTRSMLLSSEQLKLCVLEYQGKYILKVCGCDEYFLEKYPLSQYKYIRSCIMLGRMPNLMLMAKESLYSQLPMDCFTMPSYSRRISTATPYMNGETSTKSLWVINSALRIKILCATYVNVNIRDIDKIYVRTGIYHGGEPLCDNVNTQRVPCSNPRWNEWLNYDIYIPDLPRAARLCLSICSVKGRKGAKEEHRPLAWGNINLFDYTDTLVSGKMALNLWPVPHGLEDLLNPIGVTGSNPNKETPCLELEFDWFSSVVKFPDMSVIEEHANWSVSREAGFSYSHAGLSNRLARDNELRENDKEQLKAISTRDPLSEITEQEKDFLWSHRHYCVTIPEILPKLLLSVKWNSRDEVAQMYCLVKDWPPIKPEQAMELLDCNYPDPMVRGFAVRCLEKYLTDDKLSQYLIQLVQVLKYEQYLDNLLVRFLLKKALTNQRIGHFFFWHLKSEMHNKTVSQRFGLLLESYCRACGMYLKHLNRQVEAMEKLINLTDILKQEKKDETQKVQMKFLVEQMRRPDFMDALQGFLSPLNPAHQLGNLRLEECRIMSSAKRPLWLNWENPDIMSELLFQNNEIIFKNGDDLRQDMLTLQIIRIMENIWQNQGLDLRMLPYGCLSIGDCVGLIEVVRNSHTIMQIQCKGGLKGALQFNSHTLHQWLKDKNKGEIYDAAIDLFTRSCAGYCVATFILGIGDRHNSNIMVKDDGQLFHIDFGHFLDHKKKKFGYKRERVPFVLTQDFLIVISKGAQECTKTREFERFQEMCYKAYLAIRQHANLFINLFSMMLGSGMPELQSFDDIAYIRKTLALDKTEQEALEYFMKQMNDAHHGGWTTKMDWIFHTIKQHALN
Chain of Serine/threonine-protein kinase ULK3 (Homo sapiens) (Q6PHR2 whole entry, the tested form may be a part): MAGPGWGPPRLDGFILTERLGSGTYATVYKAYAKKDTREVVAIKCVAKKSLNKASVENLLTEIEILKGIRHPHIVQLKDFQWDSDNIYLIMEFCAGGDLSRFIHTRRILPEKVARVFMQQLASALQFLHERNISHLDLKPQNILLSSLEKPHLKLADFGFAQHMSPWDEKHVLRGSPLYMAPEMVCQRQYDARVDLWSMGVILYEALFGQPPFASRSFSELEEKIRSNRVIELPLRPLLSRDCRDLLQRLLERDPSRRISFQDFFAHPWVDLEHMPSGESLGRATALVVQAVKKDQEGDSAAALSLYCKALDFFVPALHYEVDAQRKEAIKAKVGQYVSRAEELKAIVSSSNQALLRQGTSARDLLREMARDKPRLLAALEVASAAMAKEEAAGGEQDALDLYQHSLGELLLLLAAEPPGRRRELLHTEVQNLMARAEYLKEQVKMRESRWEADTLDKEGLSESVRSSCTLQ
Chain of Dual specificity protein kinase TTK (Homo sapiens) (P33981 whole entry, the tested form may be a part): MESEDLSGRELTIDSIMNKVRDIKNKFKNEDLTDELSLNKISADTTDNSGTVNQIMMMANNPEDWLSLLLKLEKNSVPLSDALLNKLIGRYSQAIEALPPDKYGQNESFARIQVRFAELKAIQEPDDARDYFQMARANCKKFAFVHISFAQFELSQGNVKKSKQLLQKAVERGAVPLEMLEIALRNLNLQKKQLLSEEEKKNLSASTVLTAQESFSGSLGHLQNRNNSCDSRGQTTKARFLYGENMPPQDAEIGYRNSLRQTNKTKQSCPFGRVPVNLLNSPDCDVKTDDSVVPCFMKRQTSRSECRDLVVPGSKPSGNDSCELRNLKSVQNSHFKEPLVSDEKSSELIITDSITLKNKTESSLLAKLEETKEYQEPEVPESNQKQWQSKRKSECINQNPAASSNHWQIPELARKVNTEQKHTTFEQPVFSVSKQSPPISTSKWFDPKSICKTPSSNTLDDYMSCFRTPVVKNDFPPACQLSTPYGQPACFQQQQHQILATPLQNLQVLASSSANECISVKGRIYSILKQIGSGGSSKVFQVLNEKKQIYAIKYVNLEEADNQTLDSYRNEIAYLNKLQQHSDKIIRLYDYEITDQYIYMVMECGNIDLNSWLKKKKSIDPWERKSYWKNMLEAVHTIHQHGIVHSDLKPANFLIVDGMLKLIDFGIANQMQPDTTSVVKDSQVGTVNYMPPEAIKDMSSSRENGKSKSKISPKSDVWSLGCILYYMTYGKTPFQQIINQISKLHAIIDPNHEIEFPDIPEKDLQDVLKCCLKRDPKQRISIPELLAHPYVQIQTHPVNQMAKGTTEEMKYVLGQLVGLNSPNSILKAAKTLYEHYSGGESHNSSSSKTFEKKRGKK
Chain of cAMP-dependent protein kinase catalytic subunit PRKX (Homo sapiens) (P51817 whole entry, the tested form may be a part, canonical isoform): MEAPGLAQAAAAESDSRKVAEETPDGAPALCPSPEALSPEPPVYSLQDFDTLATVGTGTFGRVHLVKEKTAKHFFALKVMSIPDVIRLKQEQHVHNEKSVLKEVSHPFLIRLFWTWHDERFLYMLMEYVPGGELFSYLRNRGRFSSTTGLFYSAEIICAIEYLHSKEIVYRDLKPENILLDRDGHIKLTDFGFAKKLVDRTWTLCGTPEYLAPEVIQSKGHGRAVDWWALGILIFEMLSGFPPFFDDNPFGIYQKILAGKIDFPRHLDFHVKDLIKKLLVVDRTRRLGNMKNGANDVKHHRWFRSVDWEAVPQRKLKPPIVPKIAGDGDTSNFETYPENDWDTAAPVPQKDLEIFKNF

O=C(Nc1cccc([C@@H]2CN(c3ncnc4[nH]ccc34)CCN2CCO)c1)Nc1c(F)cccc1N1CCCC1
inhibition [1]: 100% | inhibition [2]: 92% | inhibition [3]: 98% | inhibition [4]: 42% | inhibition [5]: 100% | inhibition [6]: 93% | inhibition [7]: 52% | inhibition [8]: 95% | IC50 [9]: 240 nM | inhibition [10]: 75% | inhibition [11]: 95%

O=C(Nc1cccc([C@H]2CCCN(c3ncnc4[nH]ccc34)C2)c1)Nc1ccccc1N1CCCC1
inhibition [12]: 85% | inhibition [13]: 58% | inhibition [14]: 6.2% | inhibition [15]: 98% | inhibition [16]: 69% | inhibition [17]: 98% | inhibition [18]: 24% | inhibition [19]: 77% | inhibition [20]: 78% | inhibition [21]: 41% | inhibition [22]: 25% | inhibition [23]: 57% | inhibition [24]: 26% | inhibition [25]: 65% | inhibition [26]: 100% | inhibition [27]: 0.35%

Reference: ChEMBL document CHEMBL4387741, “Optimization of novel reversible Bruton's tyrosine kinase inhibitors identified using Tethering-fragment-based screens” (Bioorg Med Chem, 2019)
